From patent US9018214B2, “Bicyclic heterocycle compounds and their uses in therapy” (Astex Therapeutics Limited, priority 2011, dated 2015)
Where a name gives a salt, the structure may show the parent alone. Read-outs that look alike come from different tables or passages of the source.

Key:
[1] = biological target: BIR3 domain of human XIAP (residues 252-350) (Homo sapiens (Human), UniProt P98170); experiment: XIAP in vitro competitive displacement binding assay (fluorescence polarization); conditions: for IC50: read-out: IC50 or PI Xiap: IC50
[2] = biological target: BIR3 domain of human cIAP-1 (residues 267-363) (Homo sapiens (Human), UniProt Q13490); experiment: cIAP-1 in vitro competitive displacement binding assay (fluorescence polarization; Probe A AVPIK(5&6FAM)-amide or Probe B AbuRPFK(5&6FAM)-amide)
[3] = read-out: IC50 or PI cIAP1: IC50
[4] = Probe B AbuRPFK(5&6FAM)-amide, read-out: IC50 or PI cIAP1: IC50
[5] = Probe A AVPIK(5&6FAM)-amide, read-out: IC50 or PI cIAP1: IC50
[6] = 3 h, read-out: IC50 or PI cIAP1: PI

IC50 [2, 4] [nM]	IC50 [1] [nM]	SMILES	further results
–	–	COC[C@H]1CN[C@H](C)CN1CC(=O)N1CC(C)(C)c2ccc(-c3nnn[nH]3)cc21 [Example 258, 1-[3,3-Dimethyl-6-(1H-tetrazol-5-yl)-2,3-dihydro-indol-1-yl]-2-((2R,5R)-2-methoxymethyl-5-methyl-piperazin-1-yl)-ethanone hydrochloride]	inhibition at 10 µM ([1]; 1 h, @ 10 μM, read-out: IC50 or PI Xiap: PI): 58%; inhibition at 30 µM ([2]; 3 h, Probe B, @ 30 μM, read-out: IC50 or PI cIAP1: PI): 37%
–	–	C[C@@H]1CN(CC(=O)N2CC(C)(C)c3ncc(C(C)(F)F)cc32)[C@@H](CN2CCCC2=O)CN1 [Example 188, 1-{[(2R,5R)-1-{2-[6-(1,1-Difluoroethyl)-3,3-dimethyl-1H,2H,3H-pyrrolo[3,2-b]pyridin-1-yl]-2-oxoethyl}-5-methylpiperazin-2-yl]methyl}pyrrolidin-2-one dihydrochloride]	IC50 [2, 3]: 40 nM
670	–	CC1(C)CN(C(=O)CN2CCN[C@H](CF)C2)c2cc(Cc3ccccc3)ncc21 [Example 115, 1-{6-Benzyl-3,3-dimethyl-1H,2H,3H-pyrrolo[3,2-c]pyridin-1-yl}-2-[(3S)-3-(fluoromethyl)piperazin-1-yl]ethan-1-one]	–
–	–	C[C@@H]1CN(CC(=O)N2CCc3ccc(S(C)(=O)=O)cc32)CCN1 [Example 30, 1-(6-Methane-sulfonyl-2,3-dihydro-indol-1-yl)-2-((R)-3-methyl-piperazin-1-yl)-ethanone hydrochloride salt]	inhibition at 99 µM ([2]; 3 h, Probe A, @ 99 μM, read-out: IC50 or PI cIAP1: PI): 60%
4800	9000	C[C@@H]1CN(CC(=O)N2CC(C)(C)c3c(Cl)cc(Cl)cc32)CCN1 [Example 46, 1-(4,6-Dichloro-3,3-dimethyl-2,3-dihydro-indol-1-yl)-2-((R)-3-methyl-piperazin-1-yl)-ethanone hydrochloride salt]	–
590	780	COC[C@H]1CN[C@H](C)CN1CC(=O)N1CC(C)(C)c2cc(C)c(C#N)cc21 [Example 134, 1-{2-[(2R,5R)-2-(Methoxymethyl)-5-methylpiperazin-1-yl]acetyl}-3,3,5-trimethyl-2,3-dihydro-1H-indole-6-carbonitrile]	–
2500	950	CC(C)S(=O)(=O)c1cc2c(cc1F)C(C)(C)CN2C(=O)CN1CCN[C@H](C)C1 [Example 52, 1-[5-Fluoro-3,3-dimethyl-6-(propane-2-sulfonyl)-2,3-dihydro-indol-1-yl]-2-((R)-3-methyl-piperazin-1-yl)-ethanone diydrochloride salt]	–
–	5500	C[C@@H]1CN(CC(=O)N2CCc3cnc(-c4cc(Cl)ccc4F)cc32)CCN1 [Example 38, 1-[6-(5-Chloro-2-fluoro-phenyl)-2,3-dihydro-pyrrolo[3,2-c]pyridin-1-yl]-2-((R)-3-methyl-piperazin-1-yl)-ethanone hydrochloride salt]	IC50 [2]: < 10000 nM; IC50 [2, 5]: 2100 nM
–	–	COC[C@H]1CN[C@H](C)CN1CC(=O)N1CC(C)(C)c2cc(=O)n(CC(C)C)cc21 [Example 73, 6-Isobutyl-1-[2-((2R,5R)-2-methoxy-methyl-5-methyl-piperazin-1-yl)-acetyl]-3,3-dimethyl-1,2,3,6-tetrahydro-pyrrolo[2,3-c]pyridin-5-one hydrochloride salt]	inhibition at 3 µM ([1]; 1 h, @ 3 μM, read-out: IC50 or PI Xiap: PI): 46%; inhibition at 1 µM ([2]; 3 h, Probe B, @ 1 μM, read-out: IC50 or PI cIAP1: PI): 60%
480	1300	COC[C@H]1CN[C@H](C)CN1CC(=O)N1CC(C)(C(=O)OC)c2ccc(Br)cc21 (stereo partly drawn) [Example 129, Methyl 6-bromo-1-{2-[(2R,5R)-2-(methoxymethyl)-5-methylpiperazin-1-yl]acetyl}-3-methyl-2,3-dihydro-1H-indole-3-carboxylate hydrochloride]	–
8200	12000	C[C@@H]1CN(CC(=O)N2CC3(CCC3)c3ccc(Cl)cc32)CCN1 [Example 55, 1-{6′-Chloro-1′,2′-dihydrospiro[cyclobutane-1,3′-indole]-1′-yl}-2-[(3R)-3-methyl-piperazin-1-yl]ethan-1-one hydrochloride salt]	–
–	–	C[C@@H]1CN(CC(=O)N2CCc3ccc(F)cc32)CCN1 [Example 10, 1-(6-Fluoro-2,3-dihydro-indol-1-yl)-2-((R)-3-methyl-piperazin-1-yl)-ethanone]	inhibition at 160 µM ([2]; 3 h, Probe A, @ 160 μM, read-out: IC50 or PI cIAP1: PI): 51%
–	150000	C[C@@H]1CN(CC(=O)N2CC(C)(C)c3c(Cl)cccc32)CCN1 [Example 19, 1-(4-Chloro-3,3-dimethyl-2,3-dihydro-indol-1-yl)-2-((R)-3-methyl-piperazin-1-yl)-ethanone]	IC50 [2, 5]: 17000 nM
350	1200	COC[C@H]1CN[C@H](C)CN1CC(=O)N1CC(C)(COC)c2ccc(Br)cc21 (stereo partly drawn) [Example 127, 1-[6-Bromo-3-(methoxymethyl)-3-methyl-2,3-dihydro-1H-indol-1-yl]-2-[(2R,5R)-2-(methoxymethyl)-5-methylpiperazin-1-yl]ethan-1-one hydrochloride]	–
–	–	C[C@@H]1CN(CC(=O)N2CCc3ccc(Cl)cc32)CCN1 [Example 4, 1-(6-Chloro-2,3-dihydro-indol-1-yl)-2-((R)-3-methyl-piperazin-1-yl)-ethanone]	IC50 [2, 5]: 29000 nM
–	–	CC(C)[C@H]1CN[C@H](C)CN1CC(=O)N1CCc2ccc(Br)cc21 [Example 12, 1-(6-Bromo-2,3-dihydro-indol-1-yl)-2-((2S,5R)-2-isopropyl-5-methyl-piperazin-1-yl)-ethanone]	IC50 [2]: < 10000 nM
–	–	Cc1ccc2c(c1)N(C(=O)CN1CCN[C@H](C)C1)CC2 [Example 6, 1-(6-Methyl-2,3-dihydro-indol-1-yl)-2-((R)-3-methyl-piperazin-1-yl)-ethanone]	IC50 [2, 5]: 95000 nM
1500	–	CC1(C)CN(C(=O)CN2CCNC(CF)C2)c2cc(Cc3ccccc3)ncc21 (centres unmarked) [Example 114, 1-{6-Benzyl-3,3-dimethyl-1H,2H,3H-pyrrolo[3,2-c]pyridin-1-yl}-2-[3-(fluoromethyl)piperazin-1-yl]ethan-1-one]	–
1900	–	CC1(C)CN(C(=O)CN2CCN[C@@H](CF)C2)c2cc(Cc3ccccc3)ncc21 [Example 116, 1-{6-Benzyl-3,3-dimethyl-1H,2H,3H-pyrrolo[3,2-c]pyridin-1-yl}-2-[(3R)-3-(fluoromethyl)piperazin-1-yl]ethan-1-one]	–
–	–	CC(C)c1ccc2c(c1)N(C(=O)CN1CCN[C@H](C)C1)CC2 [Example 13, 1-(6-Isopropyl-2,3-dihydro-indol-1-yl)-2-((R)-3-methyl-piperazin-1-yl)-ethanone]	IC50 [2, 5]: 63000 nM
–	–	C[C@@H]1CN(CC(=O)N2CCc3ccc(C(F)(F)F)cc32)CCN1 [Example 22, 2-((R)-3-Methyl-piperazin-1-yl)-1-(6-trifluoromethyl-2,3-dihydro-indol-1-yl)-ethanone]	IC50 [2, 5]: 36000 nM
23	–	COC[C@H]1CN[C@H](C)CN1CC(=O)N1CC(C)(C)c2cnc(Cc3ccc(OC)cc3)cc21 [Example 98, 2-[(2R,5R)-2-(Methoxymethyl)-5-methylpiperazin-1-yl]-1-{6-[(4-methoxyphenyl)methyl]-3,3-dimethyl-1H,2H,3H-pyrrolo[3,2-c]pyridin-1-yl}ethan-1-one, hydrochloride salt]	–
310	–	COC[C@H]1CN[C@H](C)CN1CC(=O)N1CC(C)(C)c2cnc(CC(C)C)cc21 [Example 72, 1-(6-Isobutyl-3,3-dimethyl-2,3-dihydro-pyrrolo[3,2-c]pyridin-1-yl)-2-((2R,5R)-2-methoxymethyl-5-methyl-piperazin-1-yl)-ethanone]	–
–	–	C[C@@H]1CN(CC(=O)N2CCc3ccc(Nc4ccccc4)cc32)CCN1 [Example 3, 2-((R)-3-Methyl-piperazin-1-yl)-1-(6-phenylamino-2,3-dihydro-indol-1-yl)-ethanone Trifluoroacetate salt]	inhibition at 99 µM [2, 6]: 48%
–	–	C[C@@H]1CN(CC(=O)N2CC(C)(C)c3ncc(Cc4ccc(F)cc4)cc32)CCN1 [Example 265, 1-[6-(4-Fluoro-benzyl)-3,3-dimethyl-2,3-dihydro-pyrrolo[3,2-b]pyridin-1-yl]-2-((R)-3-methyl-piperazin-1-yl)-ethanone]	IC50 [2]: < 10000 nM; IC50 [2, 3]: 41 nM
–	–	CC1(C)CN(C(=O)CN2CCNC(C(F)(F)F)C2)c2cc(Cc3ccccc3)ncc21 (centres unmarked) [Example 113, 1-{6-Benzyl-3,3-dimethyl-1H,2H,3H-pyrrolo[3,2-c]pyridin-1-yl}-2-[3-(trifluoromethyl)piperazin-1-yl]ethan-1-one]	inhibition at 100 µM ([2]; 3 h, Probe B, @ 100 μM, read-out: IC50 or PI cIAP1: PI): 6%
550	–	COC[C@H]1CN[C@H](C)CN1CC(=O)N1CC(C)(Cc2ccccc2)c2ccc(Cl)cc21 (stereo partly drawn) [Example 107, 1-(3-Benzyl-6-chloro-3-methyl-2,3-dihydro-1H-indol-1-yl)-2-[(2R,5R)-2-(methoxymethyl)-5-methylpiperazin-1-yl]ethan-1-one, hydrochloride salt]	–

SMILES	IC50 [2, 4] [nM]	IC50 [1] [nM]	further results
C[C@@H]1CN(CC(=O)N2CC(C)(C)c3cc(F)c(S(=O)(=O)C4CC4)cc32)CCN1 [Example 57, 1-(6-Cyclopropane-sulfonyl-5-fluoro-3,3-dimethyl-2,3-dihydro-indol-1-yl)-2-((R)-3-methyl-piperazin-1-yl)-ethanone dihydrochloride salt]	–	810	IC50 [2, 3]: 2000 nM
C[C@@H]1CN(CC(=O)N2CCc3cccnc32)CCN1 [Example 36, 1-(2,3-Dihydro-pyrrolo[2,3-b]pyridin-1-yl)-2-((R)-3-methyl-piperazin-1-yl)-ethanone dihydrochloride salt]	–	240000	inhibition at 500 µM [2, 6]: 56%
COC[C@H]1CN[C@H](C)CN1CC(=O)N1C[C@@](C)(c2ccccc2)c2ccc(C#N)cc21 [Example 139, (3S)-1-{2-[(2R,5R)-2-(Methoxymethyl)-5-methylpiperazin-1-yl]acetyl}-3-methyl-3-phenyl-2,3-dihydro-1H-indole-6-carbonitrile]	–	230	–
